Experimental data: patent publication US8673929B2, “4,6-di- and 2,4,6-trisubstituted quinazoline derivatives and pharmaceutical compositions useful for treating viral infections” (priority 2006, dated 2014)

Legend:
[1] = system: Huh-7 HCV replicon cells; test: CC50 assay in the anti-HCV replicon assay (CellTiter-Glo); type: cell-based, human; details: 3 days incubation, CellTiter-Glo luminescence
Outline: (§1)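 Huh-7 cells harbouring an HCV replicon (6000/well) incubated 3 days at 37° C with 3-fold serially diluted compound (0.5% DMSO final where used). EC50 from luciferase luminescence of lysed cells; CC50 from CellTiter-Glo luminescence in parallel plates.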

[2] = target: HCV replicon; test: Anti-HCV replicon assay, EC50 (luciferase readout); type: cell-based; details: Huh-7 HCV replicon cells, 3 days incubation, luciferase luminescence
Outline: as §1

[3] = CC50 assay in the anti-HCV replicon assay (CellTiter-Glo); type: cell-based, human; details: human, Huh-7 hepatoma cells harbouring an HCV replicon; Huh-7 HCV replicon cells, 3 days incubation, CellTiter-Glo luminescence
Outline: as §1

Molecule	CC50 [1] [µM]	EC50 [2] [µM]	CC50 at 3 days [3] [µM]	EC50 ([2]; Hepatitis C virus, 72 h) [µM]
CCOc1ncnc2ccc(-c3cn[nH]c3)cc12 [Example 247, 4-ethoxy-6-(1H-pyrazo-4-yl)-quinazoline]	> 20	0.3 to 1		
CCOc1nc(N)nc2ccc(-c3ccc(C(=O)N4CCCCC4)cc3)cc12 [Example 148, [4-(2-amino-4-ethoxy-quinazolin-6-yl)-pheny]-piperidin-1-yl-methanone]	> 20	1 to 10		
CCOc1nc(NCc2ccc(S(N)(=O)=O)cc2)nc2ccc(-c3ccc(C(=O)NC4CC4)cc3)cc12 [Example 256, N-Cyclopropyl-4-[4-ethoxy-2-(4-sulfamoyl-benzylamino)-auinazolin-6-yl]-benzamide]	< 10	< 0.3		
CN(C)CCCOc1nc(N)nc2ccc(-c3ccc(F)c(Cl)c3)cc12 [Example 228, 6-(3-Chloro-4-fluoro-phenyl)-4-(3-dimethyl-aminopropoxy)-quinazolin-2-ylamine]	> 20	1 to 10		
CN(C)CCCOc1nc(N)nc2ccc(-c3ccc(C(F)(F)F)cc3C(F)(F)F)cc12 [Example 226, 6-(2,4-bis-trifluoromethyl-phenyl)-4-(3-dimethyl-aminopropoxy)-quinazolin-2-ylamine]	> 20	1 to 10		
(R)-4-[2-Amino-4-(tetrahydro-furan-3-yloxy)-quinazolin-6-yl]-N-[2-(1-methyl-pyrrolidin-2-yl)-ethyl]-benzamide [Example 221]	10 to 20	0.3 to 1		
CONC(=O)c1ccc(-c2ccc3nc(N)nc(OCC4CC4)c3c2)cc1 [Example 136]	10 to 20	0.3 to 1		
CC(C)Oc1nc(N)nc2ccc(-c3cccc(C#N)c3)cc12 [Example 93, 3-(2-Amino-4-isopropoxy-quinazolin-6-yl)-benzonitrile]			10 to 20	0.3 to 1
CC(C)N1CCC(NC(=O)c2ccc(-c3ccc4nc(N)nc(O[C@@H]5CCOC5)c4c3)cc2)CC1 [Example 225, (R)-4-[2-Amino-4-(tetrahydro-furan-3-yloxy)-quinazolin-6-yl]-N-(1-isopropyl-piperidin-4-yl)-benzamide]			> 20	1 to 10
CCOc1nc(N)nc2ccc(-c3cccc(O)c3)cc12 [Example 166, 3-(2-Amino-4-ethoxy-quinazolin-6-yl)-phenol]			10 to 20	1 to 10
COCCOc1nc(N)nc2ccc(-c3cccc(C#N)c3)cc12 [Example 63, 3-(2-Amino-4-(2-methoxy-ethoxy)-quinazolin-6-yl)-benzonitrile]			> 20	1 to 10
N#CC1(NC(=O)c2ccc(-c3ccc4nc(N)nc(O[C@@H]5CCOC5)c4c3)cc2)CC1 [Example 224, (R)-4-[2-Amino-4-(tetrahydro-furan-3-yloxy)-quinazolin-6-yl]-N-(1-cyano-cyclopropyl)-benzamide]			> 20	< 0.3
CCOc1nc(N)nc2ccc(-c3ccc(C(=O)NCCN(C)C)cc3)cc12 [Example 159]			< 10	< 0.3
COc1ccc(-c2ccc3nc(N)nc(OC(C)C)c3c2)cc1OC [Example 18, 2-amino-6-(3,4-dimethoxyphenyl)-4-isopropoxy-quinazoline]			< 10	< 0.3
CCOc1nc(N)nc2ccc(-c3ccc(C(=O)NC4CCCCC4)cc3)cc12 [Example 151, 4-(2-Amino-4-ethoxy-quinazolin-6-yl)-N-cyclohexyl-benzamide]			10 to 20	1 to 10
CC(=O)Nc1ccc(-c2ccc3nc(N)nc(OCC(F)(F)F)c3c2)cc1 [Example 32, 2-amino-6-(4-acetamidophenyl)-4-(2,2,2-trifluoroethoxy)-quinazoline]			> 20	0.3 to 1
CCOc1nc(N)nc2ccc(-c3ccc(C(=O)NC(C)C)cc3)cc12 [Example 155, 4-(2-Amino-4-ethoxy-quinazolin-6-yl)-N-isopropyl-benzamide]			10 to 20	0.3 to 1
Nc1nc(OCCO)c2cc(-c3ccc(C(=O)NC4CC4)cc3)ccc2n1 [Example 195, 4-[2-Amino-4-(2-hydroxy-ethoxy)-quinazolin-6-yl]-N-cyclopropyl-benzamide]			> 20	1 to 10
Cc1ccc(-c2ccc3nc(N)nc(OCC4CCC4)c3c2)cc1 [Example 107, 4-Cyclobutylmethoxy-6-p-tolyl-quinazolin-2-ylamine]			> 20	1 to 10

Molecule	CC50 [1] [µM]	EC50 [2] [µM]	CC50 at 3 days [3] [µM]	EC50 ([2]; Hepatitis C virus, 72 h) [µM]
Nc1nc(O[C@@H]2CCOC2)c2cc(-c3ccc(C(=O)NCCN4CCCC4)cc3)ccc2n1 [Example 218, (R)-4-[2-Amino-4-(tetrahydro-furan-3-yloxy)-quinazolin-6-yl]-N-(2-pyrrolidin-1-yl-ethyl)-benzamide]			< 10	< 0.3
COCCOc1nc(N)nc2ccc(-c3ccc(NC(C)=O)cc3)cc12 [Example 28, 2-amino-6-(4-acetamidophenyl)-4-(2-methoxyethoxy)-quinazoline]			10 to 20	0.3 to 1
CC(C)Oc1nc(N)nc2ccc(-c3ccc(C(=O)NC4=NCCS4)cc3)cc12 [Example 181, 4-(2-Amino-4-isopropoxy-quinazolin-6-yl)-N-(4,5-dihydro-thiazol-2-yl)-benzamide]			10 to 20	0.3 to 1
CN(C)CCCOc1nc(N)nc2ccc(-c3ccc(Cl)cc3Cl)cc12 [Example 229, 6-(2,4-Dichlorophenyl)-4-(3-dimethylamino-propoxy)-quinazolin-2-ylamine]			> 20	1 to 10
CCOc1nc(N)nc2ccc(-c3ccc(C(=O)NC)c(Cl)c3)cc12 [Example 164, 4-(2-Amino-4-ethoxy-quinazolin-6-yl)-2-chloro-N-methyl-benzamide]			> 20	1 to 10
COCCOc1nc(N)nc2ccc(-c3ccco3)cc12 [Example 60, 4-(2-Methoxy-ethoxy)-6-furan-2-yl-quinazolin-2-ylamine]			> 20	1 to 10
CNC(=O)c1ccc(-c2ccc3ncnc(OC(C)C)c3c2)cc1 [Example 245, 4-(4-Isopropoxy-quinazolin-6-yl)-N-methyl-benzamide]			> 20	1 to 10
COCCOc1nc(N)nc2ccc(-c3ccc(F)c(F)c3F)cc12 [Example 66, 4-(2-Methoxy-ethoxy)-6-(2,3,4-trifluoro-phenyl)-quinazolin-2-ylamine]			> 20	1 to 10
Nc1nc(O[C@H]2CCOC2)c2cc(-c3ccc(C(=O)NC4CC4)cc3)ccc2n1 [Example 215, (S)-4-[2-Amino-4-(tetrahydro-furan-3-yloxy)-quinazolin-6-yl]-N-cyclopropyl-benzamide]			> 20	< 0.3
CCOc1nc(N)nc2ccc(-c3ccc(C(N)=O)cc3)cc12 [Example 214, 4-(2-Amino-4-ethoxy-quinazolin-6-yl)-benzamide]			> 20	< 0.3
CC(C)NC(=O)c1ccc(-c2ccc3nc(N)nc(OCCO)c3c2)cc1 [Example 190, 4-[2-Amino-4-(2-hydroxy-ethoxy)-quinazolin-6-yl]-N-isopropyl-benzamide]			> 20	1 to 10
CN(C)CCCOc1nc(N)nc2ccc(-c3cc(F)c(F)c(F)c3)cc12 [Example 230, 4-(3-Dimethylamino-propoxy)-6-(3,4,5-trifluoro-phenyl)-quinazolin-2-ylamine]			> 20	1 to 10
CC(C)Oc1nc(N)nc2ccc(-c3ccc(C(=O)NCc4ccccc4)cc3)cc12 [Example 170, 4-(2-Amino-4-isopropoxy-quinazolin-6-yl)-N-benzyl-benzamide]			< 10	0.3 to 1
Cc1ccc(-c2ccc3nc(N)nc(OC(C)C)c3c2)cc1 [Example 79, 4-Isopropoxy-6-p-tolyl-quinazolin-2-ylamine]			> 20	1 to 10
Nc1nc(OCc2ccccc2)c2cc(-c3cn[nH]c3)ccc2n1 [Example 72, 4-benzyloxy-6-(1H-pyrazol-4-yl)-quinazolin-2-ylamine]			> 20	1 to 10
CCOc1nc(N)nc2ccc(-c3ccc(C(=O)N4CCCC4)cc3)cc12 [Example 126, [4-(2-Amino-4-ethoxy-quinazolin-6-yl)-phenyl]-pyrrolidin-1-yl-methanone]			> 20	1 to 10
CC(C)Oc1nc(N)nc2ccc(-c3ccc(F)cc3)cc12 [Example 21, 2-amino-6-(4-fluorophenyl)-4-isopropoxy-quinazoline]			> 20	1 to 10
CC(C)Oc1nc(N)nc2ccc(-c3ccc(F)c(F)c3)cc12 [Example 91, 6-(3,4-Difluoro-phenyl)-4-isopropoxy-quinazolin-2-ylamine]			10 to 20	0.3 to 1
